Literature values in patent publication US6534540B2, “Combination and method of treatment of cancer utilizing a COX-2 inhibitor and a 3-hydroxy-3-methylglutaryl-coenzyme-a (HMG-CoA) reductase inhibitor” (priority 2000, dated 2003).

Tests used:
[1] = test system: Prostate Cancer Cell Line LNCaP
[2] = target: T1, COX-2 (Mus musculus, UniProt Q05769); details: in vivo
T1 sequence (Q05769 18-604): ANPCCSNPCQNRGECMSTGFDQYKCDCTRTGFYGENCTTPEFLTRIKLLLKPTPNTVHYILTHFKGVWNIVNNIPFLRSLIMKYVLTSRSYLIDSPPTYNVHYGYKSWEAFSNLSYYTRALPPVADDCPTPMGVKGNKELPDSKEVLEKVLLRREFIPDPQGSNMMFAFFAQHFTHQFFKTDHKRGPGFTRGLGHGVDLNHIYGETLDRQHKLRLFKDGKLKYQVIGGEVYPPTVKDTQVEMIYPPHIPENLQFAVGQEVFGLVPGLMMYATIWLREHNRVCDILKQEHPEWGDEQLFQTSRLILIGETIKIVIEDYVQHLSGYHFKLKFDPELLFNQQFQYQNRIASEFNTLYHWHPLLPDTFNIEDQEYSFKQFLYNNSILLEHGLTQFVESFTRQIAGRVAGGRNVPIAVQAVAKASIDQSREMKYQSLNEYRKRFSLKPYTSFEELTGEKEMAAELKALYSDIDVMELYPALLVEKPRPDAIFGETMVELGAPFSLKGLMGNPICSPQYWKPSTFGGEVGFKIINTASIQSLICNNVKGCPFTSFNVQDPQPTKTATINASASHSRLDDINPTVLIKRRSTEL

[3] = test system: prostate cancer specimen; details: mice, prostate cancer specimen in vivo

CC[C@H](C)C(=O)O[C@H]1C[C@@H](C)C=C2C=C[C@H](C)[C@H](CC[C@@H]3C[C@@H](O)CC(=O)O3)[C@H]21 [lovastatin]
therapeutic value in prostate cancer [1]: had therapeutic value in treating prostate cancer

COc1cc(C2Oc3cc([C@H]4Oc5cc(O)cc(O)c5C(=O)[C@@H]4O)ccc3OC2CO)ccc1O (stereo partly drawn) [silybinin]
COX-2 inhibition relative to COX-1 inhibition [2]: significant COX-2 inhibition relative to COX-1 inhibition

CS(=O)(=O)Nc1ccc([N+](=O)[O-])cc1OC1CCCCC1 [NS398]
angiogenesis [3]: inhibit angiogenesis
